Drawing on PubChem BioAssay AID2060897 (Molecular Pharmacology Branch, DTP, NCI, 2025), this text covers viability, T/C and IC50 for two compounds.

The subject of this assay is 966289-007-R4-J1-PDC complex spheroid viability. The assay can be described thus: Anticancer human tumor 966289-007-R4-J1-PDC patient-derived pancreatic adenocarcinoma cell line growth inhibition [RAS]. Conditions: for viability, T/C: stronger effect = lower value. Summed up:
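Multi-cell-type spheroids: tumor cells plus HUVEC endothelial cells and mesenchymal stem cells. RAS-pathway inhibitors were combined with targeted agents, each dosed in half-log steps down from clinical Cmax, or from 10 microM when Cmax was unknown.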
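Also: spheroids exposed to agents for one week before readout.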
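For viability, T/C in this document: percent viability relative to DMSO vehicle control wells as 100%.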

As usually defined, the viability, T/C is the ratio of treated to control. A word on the IC50: it is the concentration needed to halve the response being measured. On to `CCn1c(-c2cccnc2C(C)OC)c2c3cc(ccc31)N1CCOC(CC(NC(=O)C(C(C)C)N(C)C(=O)C3(F)CCN(C(=O)C#CC(C)(C)N(C)C)CC3)C(=O)N3CCCC(N3)C(=O)OCC(C)(C)C2)C1` (centres undefined), for which the viability, T/C (compound 0.0949 µM) is 83.6% [middle of 8 runs]. For the same compound, the half-maximal inhibitory concentration (IC50) (compound alone, run of 05/20/2024) is above 300 nM.
`CCN1CCN(Cc2ccc(Nc3ncc(F)c(-c4cc(F)c5nc(C)n(C(C)C)c5c4)n3)nc2)CC1` + CCn1c(-c2cccnc2C(C)OC)c2c3cc(ccc31)N1CCOC(CC(NC(=O)C(C(C)C)N(C)C(=O)C3(F)CCN(C(=O)C#CC(C)(C)N(C)C)CC3)C(=O)N3CCCC(N3)C(=O)OCC(C)(C)C2)C1: the IC50 is, setting by setting: (curve of first compound, second compound 0.000949 µM) above 1000 nM; (curve of first compound, second compound 0.003 µM) above 1000 nM; (curve of first compound, second compound 0.00949 µM) above 1000 nM; (curve of first compound, second compound 0.03 µM) above 1000 nM; (curve of first compound, second compound 0.0949 µM) above 1000 nM; (curve of first compound, second compound 0.3 µM) above 1000 nM. Further, the viability, T/C by setting is: (second compound 0.000949 µM, first compound 0.00316 µM) 107%; (second compound 0.000949 µM, first compound 0.01 µM) 84.9%; (second compound 0.000949 µM, first compound 0.0316 µM) 104%; (second compound 0.000949 µM, first compound 0.1 µM) 81.3%; (second compound 0.000949 µM, first compound 0.316 µM) 85.6%; (second compound 0.000949 µM, first compound 1 µM) 79.3%. For the same compound, the viability, T/C (second compound 0.003 µM, first compound 0.00316 µM) was 106%; the viability, T/C (second compound 0.003 µM, first compound 0.01 µM) is 78.2%; the viability, T/C (second compound 0.003 µM, first compound 0.0316 µM) is 93.7%; the viability, T/C (second compound 0.003 µM, first compound 0.1 µM) is 79.8%; the viability, T/C (second compound 0.003 µM, first compound 0.316 µM) was 93.4%; the viability, T/C (second compound 0.003 µM, first compound 1 µM) was 84.1%. For the same compound, the viability, T/C by setting is: (second compound 0.00949 µM, first compound 0.00316 µM) 69.9%; (second compound 0.00949 µM, first compound 0.01 µM) 90.2%; (second compound 0.00949 µM, first compound 0.0316 µM) 104%; (second compound 0.00949 µM, first compound 0.1 µM) 90.4%; (second compound 0.00949 µM, first compound 0.316 µM) 90%; (second compound 0.00949 µM, first compound 1 µM) 78.5%. Also, the viability, T/C runs as follows: (second compound 0.03 µM, first compound 0.00316 µM) 77.8%; (second compound 0.03 µM, first compound 0.01 µM) 83.3%; (second compound 0.03 µM, first compound 0.0316 µM) 99.5%; (second compound 0.03 µM, first compound 0.1 µM) 81.4%; (second compound 0.03 µM, first compound 0.316 µM) 90.9%; (second compound 0.03 µM, first compound 1 µM) 78.9%. Also, the viability, T/C (second compound 0.0949 µM, first compound 0.00316 µM) is 78.4%; the viability, T/C (second compound 0.0949 µM, first compound 0.01 µM) was 99.6%; the viability, T/C (second compound 0.0949 µM, first compound 0.0316 µM) is 112%; the viability, T/C (second compound 0.0949 µM, first compound 0.1 µM) was 99.8%; the viability, T/C (second compound 0.0949 µM, first compound 0.316 µM) is 94.4%; the viability, T/C (second compound 0.0949 µM, first compound 1 µM) was 79.9%. The viability, T/C is, setting by setting: (second compound 0.3 µM, first compound 0.00316 µM) 83.3%; (second compound 0.3 µM, first compound 0.01 µM) 88.6%; (second compound 0.3 µM, first compound 0.0316 µM) 101%; (second compound 0.3 µM, first compound 0.1 µM) 87.7%; (second compound 0.3 µM, first compound 0.316 µM) 91%; (second compound 0.3 µM, first compound 1 µM) 81.3%.
